The values below come from patent publication US20230312528A1, “2-OXO-IMIDAZOLIDINE-4-CARBOXAMIDES AS NAV1.8 INHIBITORS” (Merck Sharp & Dohme LLC, priority 2020, published 2023).

human NaV1.8, sequence (Q9Y5Y9 whole entry): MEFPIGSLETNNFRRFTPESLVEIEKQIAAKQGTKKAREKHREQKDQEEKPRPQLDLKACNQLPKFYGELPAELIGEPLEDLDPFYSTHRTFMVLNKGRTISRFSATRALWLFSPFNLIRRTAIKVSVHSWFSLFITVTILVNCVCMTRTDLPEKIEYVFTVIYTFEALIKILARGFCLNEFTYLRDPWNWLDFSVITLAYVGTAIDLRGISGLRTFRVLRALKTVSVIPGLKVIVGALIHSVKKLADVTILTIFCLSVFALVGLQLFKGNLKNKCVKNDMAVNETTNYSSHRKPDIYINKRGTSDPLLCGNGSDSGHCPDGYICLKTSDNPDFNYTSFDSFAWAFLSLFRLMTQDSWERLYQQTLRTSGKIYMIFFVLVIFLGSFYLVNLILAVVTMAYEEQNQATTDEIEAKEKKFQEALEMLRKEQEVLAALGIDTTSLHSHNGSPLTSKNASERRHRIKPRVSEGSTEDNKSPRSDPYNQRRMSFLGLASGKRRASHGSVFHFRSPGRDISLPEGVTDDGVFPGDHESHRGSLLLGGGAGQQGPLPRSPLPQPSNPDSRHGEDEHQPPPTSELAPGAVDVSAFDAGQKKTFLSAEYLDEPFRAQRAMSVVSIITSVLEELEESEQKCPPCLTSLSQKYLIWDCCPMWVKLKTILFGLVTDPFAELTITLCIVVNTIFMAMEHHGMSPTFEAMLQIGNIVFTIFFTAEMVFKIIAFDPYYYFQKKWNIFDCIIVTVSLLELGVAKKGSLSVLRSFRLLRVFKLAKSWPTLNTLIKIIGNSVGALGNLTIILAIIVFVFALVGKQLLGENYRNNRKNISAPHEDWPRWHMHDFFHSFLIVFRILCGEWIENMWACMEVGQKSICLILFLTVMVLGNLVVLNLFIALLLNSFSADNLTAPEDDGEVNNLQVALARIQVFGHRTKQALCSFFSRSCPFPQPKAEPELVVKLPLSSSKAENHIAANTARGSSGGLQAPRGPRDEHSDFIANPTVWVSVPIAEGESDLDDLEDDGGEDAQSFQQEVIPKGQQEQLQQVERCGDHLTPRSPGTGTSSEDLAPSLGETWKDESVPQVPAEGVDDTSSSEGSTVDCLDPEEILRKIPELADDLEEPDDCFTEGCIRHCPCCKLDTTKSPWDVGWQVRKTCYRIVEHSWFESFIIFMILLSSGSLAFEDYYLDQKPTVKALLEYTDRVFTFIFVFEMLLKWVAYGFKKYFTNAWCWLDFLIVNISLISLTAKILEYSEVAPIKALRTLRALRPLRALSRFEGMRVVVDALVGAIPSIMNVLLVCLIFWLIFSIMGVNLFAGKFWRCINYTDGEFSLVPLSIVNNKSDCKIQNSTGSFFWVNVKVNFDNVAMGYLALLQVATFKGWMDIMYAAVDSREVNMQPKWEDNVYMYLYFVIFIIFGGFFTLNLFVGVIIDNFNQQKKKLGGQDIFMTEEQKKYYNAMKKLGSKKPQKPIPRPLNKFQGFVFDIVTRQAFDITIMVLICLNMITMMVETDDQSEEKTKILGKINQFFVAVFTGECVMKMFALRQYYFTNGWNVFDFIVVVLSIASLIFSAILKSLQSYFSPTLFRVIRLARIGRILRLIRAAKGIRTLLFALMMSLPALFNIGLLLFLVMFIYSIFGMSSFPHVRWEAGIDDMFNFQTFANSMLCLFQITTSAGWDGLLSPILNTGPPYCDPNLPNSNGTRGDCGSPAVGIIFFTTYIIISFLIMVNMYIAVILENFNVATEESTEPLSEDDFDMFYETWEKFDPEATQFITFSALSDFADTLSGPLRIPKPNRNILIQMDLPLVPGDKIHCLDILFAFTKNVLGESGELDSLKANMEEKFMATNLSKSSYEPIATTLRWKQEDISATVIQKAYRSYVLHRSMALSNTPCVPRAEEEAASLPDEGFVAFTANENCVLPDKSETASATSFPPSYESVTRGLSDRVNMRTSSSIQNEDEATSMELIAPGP

The assay concerns the target human NaV1.8 (Homo sapiens (Human), UniProt Q9Y5Y9). Description: Nav1.8 Qube automated patch-clamp assay. Format: cell-based. The note with it: human NaV1.8 stably expressed in HEK 293 cells; automated 384-well patch-clamp; resting or inactivated state not specified. Here is the method:
Compounds were tested on human NaV1.8 and NaV1.5 channels stably expressed in human embryo kidney (HEK) 293 cells. Sodium current measurements on Qube® were conducted as follows: automated 384-well patch-clamp assays on the Qube® platform (Sophion Biosciences) were used to measure the inhibition of sodium flow through human NaV1.8 and NaV1.5 channels. Whole-cell voltage-clamp recordings were performed in QChips® (Sophion Biosciences) at room temperature. NaV1.8 current measurements on Qube® were obtained as follows: NaV1.8 currents were elicited with a 10 second 1 Hertz (Hz) pulse train from a holding potential of −90 millivolts (mV), delivered to the cells once per minute in the control condition (DMSO only) and after compound addition. The 1 hertz pulse train stimulation consisted of ten test pulses to 10 millivolt (mV) for 20 milliseconds (ms), each of which was followed by a 980 millisecond repolarization to −67 millivolts. At the end of the 10 second pulse train stimulation, a 5 second hyperpolarization step to −100 millivolt (mV) was used to recover NaV1.8 from fast inactivation. The peak currents elicited by the 1st and 10th test pulses were used to determine IC50 values for resting inhibition and inactivated state inhibition. NaV1.5 current measurements on Qube® were obtained as follows: NaV1.5 currents were elicited with a 20 second 3 Hertz pulse train in the control condition (DMSO only) and after compound addition. The pulse train consisted of sixty 20 millisecond test pulses to 0 millivolt from a holding potential of −80 millivolt (mV). The average peak currents elicited by the last 3 test pulses were used to determine IC50 values for NaV1.5 inhibition.
The following buffers were used for the Qube® recordings: External buffer for NaV1.8 Qube® recording: 150 NaCl, 2 CaCl2, 5 KCl, 1 Mg Cl2, 10 HEPES, 12 Dextrose; External buffer for Qube® NaV1.5 recording: 120 N-Methyl-D-Glucamine, 40 NaCl, 1 KCl, 2.7 CaCl2, 5 HEPES, 0.5 MgCl2; and Internal buffer for Qube® recording: 120 CsF, 30 CsCl, 10 EGTA, 5 HEPES, 5 NaF, 2 MgCl2.
For all Qube® experiments offline analysis was used to determine percent inhibition as a function of drug concentration. IC50 values were determined by fitting to the Hill equation.
Background: In patch-clamp work, channel activity is measured electrically.
As to `O=C1NC[C@@H](C(=O)NC(c2ccc(F)c(Cl)c2)C2Cc3c(Cl)cccc32)N1` (single isomer, unassigned) [Example 70D, (S)-N-((R or S)-(3-chloro-4-fluoro-phenyl)((R or S)-2-chlorobicyclo[4.2.0]-octa-1(6),2,4-trien-7-yl)methyl)-2-oxoimidazolidine-4-carboxamide], the IC50 is 650 nM. In turn, `Cc1nc2cc(C(NC(=O)[C@@H]3CNC(=O)N3)c3ccc(F)c(Cl)c3)ccc2s1` (single isomer, unassigned) [Example 66A, (S)—N—((R or S)-(3-chloro-4-fluorophenyl)(2-methylbenzo[d]thiazol-5-yl)methyl)-2-oxoimidazolidine-4-carboxamide] came in with a half-inhibitory concentration (IC50) of 63 nM.

As for `O=C1NC[C@@H](C(=O)NC(c2ccc(OC(F)(F)F)cc2)c2ccc3c(c2)C(F)(F)C3)N1` (single isomer, unassigned) [Example 89, (S)—N—((R or S)-(8,8-difluorobicyclo[4.2.0]octa-1(6),2,4-trien-3-yl)(4-(trifluoromethoxy)phenyl)methyl)-2-oxoimidazolidine-4-carboxamide], inhibition was half-maximal at 4.9 nM (IC50). The value for `O=C1NC[C@@H](C(=O)NC(CC2CCC(F)(F)CC2)c2ccc(F)c(Cl)c2F)N1` (single isomer, unassigned) [Example 25A, (S)-N-((R or S)-1-(3-chloro-2,4-difluorophenyl)-2-(4,4-difluorocyclohexyl)ethyl)-2-oxoimidazolidine-4-carboxamide] was 22 nM. In turn, `O=C1NC[C@@H](C(=O)NC(c2cnc(OC(F)F)s2)c2ccc(F)c(Cl)c2F)N1` (single isomer, unassigned) [Example 36A, (S)-N-((R or S)-(3-chloro-2,4-difluorophenyl)(2-(difluoromethoxy)thiazol-5-yl)methyl)-2-oxoimidazolidine-4-carboxamide] gave an IC50 of 12 nM. The value for `O=C1NC[C@@H](C(=O)NC(c2cnc(OC(F)F)s2)c2ccc(F)c(Cl)c2F)N1` (single isomer, unassigned) [Example 36B, (S)-N-((R or S)-(3-chloro-2,4-difluorophenyl)(2-(difluoromethoxy)thiazol-5-yl)methyl)-2-oxoimidazolidine-4-carboxamide] was 186 nM; that for `O=C(NC(c1ccc(Cl)cc1)c1ccc(Cl)cc1)C1CNC(=O)N1CCO` (single isomer, unassigned) [Example 21A, (R or S)—N-(bis(4-chlorophenyl)methyl)-3-(2-hydroxyethyl)-2-oxoimidazolidine-4-carboxamide] was 209 nM; that for `O=C1NC[C@@H](C(=O)NC(c2ccc(OC(F)(F)F)cc2)c2ccc(F)c(C(F)(F)F)n2)N1` (single isomer, unassigned) [Example 7B, (S)—N—((R or S)-(5-fluoro-6-(trifluoromethyl)pyridin-2-yl)(4-(trifluoromethoxy)phenyl)methyl)-2-oxo-imidazolidine-4-carboxamide] was 44 nM. The value for `Cc1nc2ccc(C(NC(=O)[C@@H]3CNC(=O)N3)c3ccc(Cl)cc3)cc2o1` (single isomer, unassigned) [Example 83A, (S)-N-((R or S)-(4-chlorophenyl)(2-methylbenzo[d]oxazol-6-yl)methyl)-2-oxoimidazolidine-4-carboxamide] was 147 nM. The value for `O=C1NC[C@@H](C(=O)NC(c2cnc(OCC(F)(F)F)s2)c2ccc(F)c(Cl)c2F)N1` (single isomer, unassigned) [Example 35A, (S)-N-((R or S)-(3-chloro-2,4-difluorophenyl)(2-(2,2,2-trifluoroethoxy)thiazol-5-yl)methyl)-2-oxoimidazolidine-4-carboxamide] was 2.4 nM; that for `O=C1NC[C@@H](C(=O)NC(c2ccc(F)c(Cl)c2)c2nc3ccccc3o2)N1` (single isomer, unassigned) [Example 88, (S)-N-((R or S)-benzo[d]oxazol-2-yl(3-chloro-4-fluoro-phenyl)methyl)-2-oxoimidazolidine-4-carboxamide] was 8.6 nM. The molecule `O=C1NC[C@@H](C(=O)NC(c2ccc(Cl)cc2)c2ccc3ncsc3c2)N1` (mixture of isomers) [Example 81, (4S)-N-(benzo[d]thiazol-6-yl(4-chlorophenyl)methyl)-2-oxoimidazolidine-4-carboxamide] returned an IC50 of 54 nM. The value for `CC(N1CC(C)(C(NC(=O)[C@@H]2CNC(=O)N2)c2ccc(F)c(Cl)c2F)C1)C(F)(F)F` (single isomer, unassigned) [Example 65A, (S)—N—((R or S)-(3-chloro-2,4-difluorophenyl)(3-methyl-1-((R or S)-1,1,1-trifluoropropan-2-yl)azetidin-3-yl)methyl)-2-oxoimidazolidine-4-carboxamide] was 16200 nM; that for `Cn1nc(C(NC(=O)[C@@H]2CNC(=O)N2)c2ccc(Cl)cc2)cc1C(F)(F)F` (single isomer, unassigned) [Example 75A] was 58 nM. For the molecule `O=C1NC[C@@H](C(=O)NC(c2ccc(F)c(Cl)c2)C2Cc3c(Cl)cccc32)N1` (single isomer, unassigned) [Example 70B, (S)-N-((R or S)-(3-chloro-4-fluoro-phenyl)((R or S)-2-chlorobicyclo[4.2.0]-octa-1(6),2,4-trien-7-yl)methyl)-2-oxoimidazolidine-4-carboxamide], the 50% inhibitory concentration (IC50) turned out to be 9 nM. The value for `O=C1NC[C@@H](C(=O)NC(c2ccc(F)c(Cl)c2)C2Cc3c(Cl)cccc32)N1` (single isomer, unassigned) [Example 70C, (S)-N-((R or S)-(3-chloro-4-fluoro-phenyl)((R or S)-2-chlorobicyclo[4.2.0]-octa-1(6),2,4-trien-7-yl)methyl)-2-oxoimidazolidine-4-carboxamide] was 117 nM; that for `O=C1NC[C@@H](C(=O)NC(c2ccc(F)c(Cl)c2)c2nc3cccnc3s2)N1` (stereo partly drawn) [Example 72, (4S)-N-((3-chloro-4-fluorophenyl)(thiazolo [5,4-b]pyridin-2-yl)methyl)-2-oxoimidazolidine-4-carboxamide] was 74 nM; that for `CS(=O)(=O)c1ccc(C(NC(=O)[C@@H]2CNC(=O)N2)c2ccc(F)c(Cl)c2)cc1` (single isomer, unassigned) [Example 85A, (S)-N-((R or S)-(3-chloro-4-fluorophenyl)(4-(methylsulfonyl)phenyl)methyl)-2-oxoimidazolidine-4-carboxamide] was 372 nM. `O=C1NC[C@@H](C(=O)NC(c2ccc(F)c(Cl)c2)C2Cc3c(Cl)cccc32)N1` (single isomer, unassigned) [Example 70A, (S)-N-((R or S)-(3-chloro-4-fluoro-phenyl)((R or S)-2-chlorobicyclo[4.2.0]-octa-1(6),2,4-trien-7-yl)methyl)-2-oxoimidazolidine-4-carboxamide] yielded an IC50 of 26 nM.

In the case of `O=C1NC[C@@H](C(=O)NC(c2ccc(F)c(Cl)c2F)[C@@H]2CC[C@@H](C(F)(F)F)CO2)N1` (single isomer, unassigned) [Example 8C, (S)—N—((R or S)-(3-chloro-2,4-difluorophenyl)((trans)-5-(trifluoromethyl)tetrahydro-2H-pyran-2-yl)methyl)-2-oxoimidazolidine-4-carboxamide], the midpoint of inhibition, the IC50, lay at 23 nM. Turning to `O=C1NC[C@@H](C(=O)NC(c2ccc(Cl)cc2)c2ccc3cn[nH]c3c2)N1` (single isomer, unassigned) [Example 82A, (S)-N-((R or S)-(4-chlorophenyl)(1H-indazol-6-yl)methyl)-2-oxoimidazolidine-4-carboxamide], the IC50 came out at 255 nM. The molecule `CN1C(=O)NCC1C(=O)NC(c1ccc(Cl)cc1)c1ccc(Cl)cc1` (single isomer, unassigned) [Example 2A, (R or S)—N-(bis(4-chlorophenyl)methyl)-3-methyl-2-oxoimidazolidine-4-carboxamide] showed an IC50 of 34 nM. Turning to `O=C1NC[C@@H](C(=O)NC(c2ccc(F)c(Cl)c2F)C23CC(C(F)(F)F)(C2)C3)N1` (single isomer, unassigned) [Example 27A, (4S)—N—((R or S)-(3-chloro-2,4-difluorophenyl)(3-(trifluoromethyl)bicyclo[1.1.1]pentan-1-yl)methyl)-2-oxoimidazolidine-4-carboxamide], the IC50 is 5.8 nM. For the molecule `O=C1NC[C@@H](C(=O)NC(c2ccc(Cl)cc2)c2cccc(OC(F)F)n2)N1` (single isomer, unassigned) [Example 74A, (S)-N-((R or S)-(4-chlorophenyl)(6-(difluoromethoxy)pyridin-2-yl)methyl)-2-oxoimidazolidine-4-carboxamide], half-maximal inhibition (IC50) was put at 19 nM.

The IC50 is the point on the concentration scale where inhibition reaches its midpoint. Low values mean higher potency, high ones lower potency.
